From patent US8476317B2, “N-alkylcarbonyl-amino acid ester compounds and their use for cough and pharyngitis” (priority 2011, dated 2013)

Assays:
Assay type in all cases: in vivo, human
[1] = tested on: philtrum skin; assay: Cooling on facial (philtrum) skin, ointment; conditions: for skin or eye irritancy: in vivo; for Philtrum Skin (min), duration of cooling: 5 mg/ml in Aquaphor ointment
Source text: A reliable place for topical application is the skin above the upper lip (above the vermilion border of the lips), on the philtrum, lateral to the philtrum until the nasolabial folds, and on the lower nostrils (subnasale). This part of the face is known to be densely innervated with cold receptors, second only to the surfaces of the eyeball and anogenitalia. At this locus, tingling, cool and cold sensations in the skin may be experienced and rated for time of onset and intensity.
The intervals for recording sensations are 5 to 10 minutes, until two successive zeroes are obtained. The results (shown in FIG. 1) are averaged values of 4 to 6 separate trials in the same individual. The data are plotted using SigmaPlot® (Systat Software, Point Richmond Calif.) and a smoothing function with a negative exponential was used for analysis and statistical fit of the results. Confirmatory trials of cooling action of the long-acting NACE compounds were obtained in 2 to 4 individuals but not quantified for some because of the large number of chemicals that were evaluated.
(§1) The onset of drug action is taken as the time to reach 2 units of coolness intensity, and offset of drug action is the time when coolness intensity drops below 2, after previously surpassing 2 units. The duration of cooling action is defined as the offset time minus the onset time. […] The quality of the sensation is noted, for example, as pure refreshing coolness, or if the sensation is accompanied by irritation (stinging or burning). The quality of the sensation is not rated for intensity.
For bioassay on the skin, approximately 30 mg was stirred and dissolved in 3 g of warm liquid Aquaphor® ointment to a yield a 40 mM (˜1% wt/vol) ointment. The exact amount was adjusted so that the molar equivalent was about 35 to 40 mM. After cooling, 40 to 70 mg of the solid ointment was placed on the tip of a plastic stick and applied to the skin above the upper lip, on the philtrum, and lateral to the philtrum, up to the nasolabial folds, of test subjects and the onset and duration of cooling sensations noted.
The intervals for recording sensations were 5 to 10 minutes, until two successive zeroes were obtained. The results (shown in FIG. 1) are averaged values of 4 to 6 separate trials in the same individual. The data are plotted using SigmaPlot® (Systat Software, Point Richmond, Calif., USA) and a smoothing function with a negative exponential was used for analysis and statistical fit of the results.
as §1, with “was” for “is”, “was also noted: such” for “is noted, for example,”
In the results of FIG. 1, the test compounds were singly applied to the skin above the upper lips as a ˜1% wt/vol (10 mg/ml) ointment. Subsequently, for the results shown in Table 3, the test dose on the philtrum was reduced to a 0.5% wt/vol (5 mg/ml) ointment. The reason for choosing a lower dose was to increase the number of trials per individual and to have a reduced chance of substances accumulating in the skin.

[2] = tested on: cough; conditions: for cooling action of ODT on the pharyngeal surface: Study 6, ODT; for effectiveness in reducing cough: Study 6, ODT 2.0 to 2.5 mg, 14 adult males with cough
Procedure: In 20 trials, 10 trials per subject, two mg of 95%+ pure powder of a D-Ala ethyl compound (No. 2 in Table 1, (R)-2-[((1R,2S,5R)-2-isopropyl-5-methyl-cyclohexanecarbonyl)-amino]-propionic acid ethyl ester)) of Formula (1) was placed on the mid-portion of the tongue of these two subjects. Both subjects reported relief from the desire to cough within 1 minute after application. Sensations of robust coolness in the back of the throat was noted and lasted for about 30 minutes. Applications of similar amounts of powdered sugar were not effective. The placebo could be clearly distinguished from the active compound because of the absence of cooling sensations.
A person with a documented 31-year history of asthma attacks volunteered to test one of the compounds falling within Formula (1). They were extremely sensitive to agents such as tobacco smoke, dust, pollen, odors, down/woolen materials, house cleansing products, pets, and sudden change of air temperature, and reacted with violent coughing, mucus secretions, wheezing, choking, and shortness of breath. At the time of this trial, they were taking these medications for their condition: theophylline, Allegra®, Advair®, Intal®, and Singulair®. In 5 trials, during a coughing spree, they placed one to two mg of 95%+ pure powder of a D-Ala ethyl ester (No. 2 in Table 1, ((R)-2-[((1R,2S,5R)-2-isopropyl-5-methyl-cyclohexanecarbonyl)-amino]-propionic acid ethyl ester))) of Formula (1) on the mid-portion of their tongue. They reported a soothing and cool sensation with a slight taste similar to Eucalyptus oil in their mouth and throat. Coughing stopped after 3 to 5 minutes and breathing was normal. […] In three trials when the compound was applied at night, they slept through the night without being awakened by cough. Their spouse remarked that, in over 30 years of marriage, this was the first time that they had seen an effective medication for their cough. They noted that the irritative signals of cough were absent in the presence of the applied chemical, but they still sensed a mechanical build up of secretions in their airways and could voluntarily cough up such secretions if necessary. They continue to use the test compound for management of their asthma, with the knowledge and consent of their physician.
A person had adult-onset asthma for 20 years. Triggers for attacks were tobacco smoke, dust, and changes in air temperature. They used Foradil® (formoterol fumarate) and Asmanex® (mometasone fuorate) twice a day to control their asthma, and monitored their pulmonary function with a portable device for measuring peak expiratory flow. They had daily episodes of both productive and non-productive cough. In 5 trials, when they felt throat irritation and a desire to cough, placement of 1 to 3 mg of (R)-2-[((1R,2S,5R)-2-isopropyl-5-methyl-cyclohexanecarbonyl)-amino]-propionic acid ethyl ester) (No. 2 in Table 1) provided rapid relief and was described as soothing and removed “tightness” in the chest. Peak expiratory flow improved from 320 Umin to 370 Umin. […] The subjective response to the long-acting NACE compound was definitely favourable. The subject remarked that the best time to use the NACE compuound was after inhaling the crystalline Foradil® because this inhaled drug irritated their throat.
ODT containing 2.0 to 2.5 mg of D-Aa Me Ester, D-Ala Et Ester, or D-Ala iPr Ester (identified chemically in Table 1 as No. 1, No. 2, and No. 3, respectively) were prepared using mannitol/maltitol as the excipient and stored in tic-tac boxes each containing 10 tablets. Over a course of two years, 14 adult males with cough tested these tablets. The causes of coughing were colds/flu, allergies, pharyngitis, excessive smoking, and two cases of gastroesophageal reflux. These individuals all had advanced degrees (M.D. or Ph.D.) and were motivated to try the tablets by scientific curiosity or because of financial interests in drug development, or, in several cases, by the annoyance caused by the cough. […]

[3] = tested on: ocular surface; assay: Eye wipe test, duration of cooling on ocular surface; conditions: eye wipes 1 mg/ml in 5%-95% v/v ethanol-distilled water
Procedure: To further document the activities fo the test molecules, the results from an eye wipe test was included. Here the test substance is applied to the closed eyelids with a towelette at a concentration of 1 mg/ml in 5%-ethanol-95%-distilled water vol/vol and the duration of cooling on the ocular surface was recorded. […] It is likely that the mucous membranes that line the ocular surface and the pharynx have similar sensory mechanisms that are somewhat different from the philtrum skin which is keratinized.

Compound | skin or eye irritancy [1] | duration of absence of irritation and itching at the back of the throat (cough signals) ([2]; Study 3) | time individual was observed not to cough ([2]; Study 3) | time desire to cough was removed ([2]; Study 3, after 4 or 6 applications within 2 days) | time to relief from the desire to cough ([2]; Study 3, two cigar smokers, two mg powder on tongue) | duration of robust coolness in the back of the throat ([2]; Study 3, two mg powder on tongue) | time until coughing stopped ([2]; Study 4, asthmatic, one to two mg on tongue) | recurrence of asthmatic coughing attacks ([2]; Study 4, continued use) | effect when given in the midst of a productive cough spell ([2]; Study 5, 3 episodes) | relief of throat irritation and desire to cough ([2]; Study 5, 5 trials, 1 to 3 mg) | Peak expiratory flow ([2]; Study 5, asthmatic, 1 to 3 mg, improved from 320) | cooling action of ODT on the pharyngeal surface [2] | effectiveness in reducing cough [2] | side-effects ([2]; human, in vivo) | Eyelids/Ocular Surface (min), duration of cooling [3] | Philtrum Skin (min), duration of cooling [1]
CCOC(=O)[C@@H](C)NC(=O)[C@@H]1C[C@H](C)CC[C@H]1C(C)C [D-Ala-OEt, (R)-2-[((1R,2S,5R)-2-isopropyl-5-methyl-cyclohexanecarbonyl)-amino]-propionic acid ethyl ester] | without skin or eye irritancy | 4 to 5 h | 6 to 8 h | at least 5 days | ≤ 1 min | about 30 minutes | 3 to 5 min | have not recurred with any severity for one month | no significant effects were observed | rapid relief | 370 Umin | robust cooling action | 100% | did not sense any build up of mucus or other side-effects | 180 min | 
CCOC(=O)C(C)NC(=O)[C@@H]1C[C@H](C)CC[C@H]1C(C)C (stereo partly drawn) [L-Ala-OEt] |  |  |  |  |  |  |  |  |  |  |  | inactive |  |  | 0 min | 34 min
COC(=O)[C@@H](C)NC(=O)[C@@H]1C[C@H](C)CC[C@H]1C(C)C [D-Ala-OMe, (R)-2-[((1R,2S,5R)-2-isopropyl-5-methyl-cyclohexanecarbonyl)-amino]-propionic acid methyl ester] | without skin or eye irritancy |  |  |  |  |  |  |  |  |  |  | robust cooling action | 100% |  | 120 min | 77 min
